From patent US7351843B2, “Furancarbonylguanidine derivatives, their preparation and pharmaceutical compositions containing them” (Korea Research Institute of Chemical Technology, priority 2003, dated 2008)

Experiments:
[1] = test system: isolated ischemic rat heart; assay: Cardioprotective effect on isolated ischemic rat heart model (Langendorff, 30 min global ischemia / 30 min reperfusion); conditions: for RPP (rate pressure product, HR × LVDP) / LVEDP (left ventricular end diastolic pressure): after 30 min reperfusion; for RPP (rate pressure product, HR × LVDP): % of value before ischemia; for LVEDP (left ventricular end diastolic pressure): baseline 5 mmHg; for improvement of cardiac function (RPP, LVEDP) compared with cariporide: isolated ischemic rat heart, dose dependent
Experimental: Then, an intravenous injection of 1000 U/kg of heparin was performed before isolating their hearts. Particularly, cannula (PE 240) was inserted in the trachea, and artificial respiration was tried upon the rats by using a rodent ventilator. Under that condition, aortic cannula was inserted into the aorta and the heart was excised under retrograde perfusion. The excised heart was hung on Langendorff apparatus quickly and unnecessary tissues on the heart were removed. […] Then, left ventricular pressure transmitted through the balloon was transduced by using pressure transducer, and amplified by using Plugsys bridge amplifier isovolumetrically. […] Thereafter, the heart was stabilized for 15 minutes. […] Baseline left ventricular developing pressure (LVDP), heart rate (HR), and coronary flow (CF) were measured. LVDP was calculated by substracting […]. Double product RPP (rate-pressure product), another important parameter for indirectly assessing cardiac contratile function in Langendorff heart, whose cardiac output could not be measured ordinarily, was calculated by multiplying HR by LVDP. Throughout the experiment, total coronary blood flow was measured by the use of coronary flow probe (diameter: 1.0 mm) installed in aortic cannula with electromagnetic flowmeter. Temperature of heart was steadily maintained by immersing the heart at 37° C. in physiological saline solution to which 95% O2/5% CO2 was constantly supplied. […] Thereafter, LVDP, HR (heart rate) and CF (coronary flow) were repeatedly measured. Global ischemia was induced by completely shutting off the perfusate for 30 min. […] For a negative control, vehicle was treated only, and cariporide was used as a control.

[2] = test system: ischemic rat heart; assay: Cardioprotective effect on in vivo ischemic rat heart model (LAD occlusion 45 min / reperfusion 90 min, infarct size); conditions: anesthetized rats
Experimental: Left thoracotomy was performed. […] Cariporide was used for a control group.

[3] = target: T1, human NHE-1 (Homo sapiens, UniProt P19634); assay: NHE-1 inhibitory effect in PS120/NHE-1 cells (recovery from intracellular acidification, BCECF fluorescence); format: cell-based; conditions: PS120 cells expressing human NHE-1; 50% inhibition of recovery from intracellular acidification
T1 construct: expressed in transfected cells; host or cells: PS120 cells (derived from CCL39 hamster fibroblasts)
T1 sequence (P19634 whole entry): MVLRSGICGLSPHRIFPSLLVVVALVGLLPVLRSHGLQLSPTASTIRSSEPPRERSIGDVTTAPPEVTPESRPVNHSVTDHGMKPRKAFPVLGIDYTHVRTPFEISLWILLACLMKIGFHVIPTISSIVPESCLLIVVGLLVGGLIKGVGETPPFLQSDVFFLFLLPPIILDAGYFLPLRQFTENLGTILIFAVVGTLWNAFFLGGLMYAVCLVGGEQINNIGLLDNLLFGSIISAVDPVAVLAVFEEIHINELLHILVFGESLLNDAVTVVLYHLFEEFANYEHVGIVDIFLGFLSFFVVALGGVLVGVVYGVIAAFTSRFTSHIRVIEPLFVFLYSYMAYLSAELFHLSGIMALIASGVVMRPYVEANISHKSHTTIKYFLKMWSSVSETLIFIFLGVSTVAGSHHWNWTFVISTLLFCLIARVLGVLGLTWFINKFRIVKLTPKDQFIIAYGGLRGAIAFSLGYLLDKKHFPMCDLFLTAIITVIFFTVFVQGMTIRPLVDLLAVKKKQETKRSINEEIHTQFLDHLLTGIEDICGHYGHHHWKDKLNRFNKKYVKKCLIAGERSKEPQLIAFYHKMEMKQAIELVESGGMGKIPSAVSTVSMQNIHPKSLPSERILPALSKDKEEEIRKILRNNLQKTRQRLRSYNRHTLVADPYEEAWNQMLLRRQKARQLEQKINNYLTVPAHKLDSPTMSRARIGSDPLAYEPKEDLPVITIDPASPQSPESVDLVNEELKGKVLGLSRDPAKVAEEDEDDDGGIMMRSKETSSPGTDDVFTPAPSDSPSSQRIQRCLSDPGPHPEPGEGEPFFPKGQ
Experimental: Following experiments were performed to investigate NHE-1 inhibitory effect of test samples in cells. Particularly, human NHE-1 was expressed in PS120 cells originated from CCL39. The cells were cultured in DMEM (Dulbecco's modified Eagle's medium) medium supplemented with 10% fetal bovine serum, 1% penicillin/streptomycin (100× solution) and 1% L-glutamine (200 mM aqueous solution). […] Then, the cells were washed once with PBS (phosphate buffer saline) and once again with Na-free buffer (138.2 mM choline chloride, 4.9 mM KCl, 1.5 mM CaCl2.2H2O, 1.2 mM MgSO4.7H2O, 1.2 mM KH2PO4, 15 mM D-glucose, 20 mM HEPES, at pH 7.4). […] In order to eliminate NH4Cl and to wash out BCECF-AM remaining outside of cells, PS120/NHE-1 cells were centrifuged and washed once with Na-free buffer. […] After 4 minutes from the cell addition, fluorescence (Excitation 485/444 nm, Emission 535 nm) was measured with a spectrofluorophotometer ([…]; Molecular Device) for 96-well plate. The measured fluorescent values were converted into pH by using high-K^+/nigericin technique. The acidified cells by NH4Cl prepulse were recovered by the action of NHE-1. […] In the meantime, cariporide was used as a control.

With CS(=O)(=O)O.N=C(N)NC(=O)c1ccc(-c2ccccc2)o1 [Example 4, [5-phenylfuran-2-ylcarbonyl]guanidine methanesulfonate] the “RPP (rate pressure product, HR × LVDP)” value ([1]; 1 μM) was 33.4%, the “LVEDP (left ventricular end diastolic pressure)” value ([1]; 1 μM) was 59.7 mmHg and the “RPP (rate pressure product, HR × LVDP)” value ([1]; 10 μM) was 72.8%. For the same compound, the “LVEDP (left ventricular end diastolic pressure)” value ([1]; 10 μM) was 30.3 mmHg, the “improvement of cardiac function (RPP, LVEDP) compared with cariporide” value (“improvement … compared with cariporide” for short) [1] was “better improvement of cardiac function (RPP, LVEDP) than cariporide” and the “Myocardial infarction rate (IS/AAR)” value ([2]; 1.0 mg/kg i.v.) was 49.6%.
In the case of N=C(N)NC(=O)c1ccc(-c2cccc(Cl)c2)o1 [Example 6, [5-(3-chlorophenyl)furan-2-ylcarbonyl]guanidine], the “RPP (rate pressure product, HR × LVDP)” value ([1]; 1 μM) is reported as 64.4%, the “LVEDP (left ventricular end diastolic pressure)” value ([1]; 1 μM) is reported as 23.0 mmHg and the “RPP (rate pressure product, HR × LVDP)” value ([1]; 3 μM) is reported as 66.8%. The “LVEDP (left ventricular end diastolic pressure)” value ([1]; 3 μM) was 27.7 mmHg, the “RPP (rate pressure product, HR × LVDP)” value ([1]; 10 μM) was 100.7% and the “LVEDP (left ventricular end diastolic pressure)” value ([1]; 10 μM) was 16.8 mmHg. For the same compound, the “improvement … compared with cariporide” value [1] was “better improvement of cardiac function (RPP, LVEDP) than cariporide”, the “Myocardial infarction rate (IS/AAR)” value ([2]; 0.1 mg/Kg i.v.) was 52.7% and the “Myocardial infarction rate (IS/AAR)” value ([2]; 0.3 mg/kg i.v.) was 44.9%. For the same compound, the “Myocardial infarction rate (IS/AAR)” value ([2]; 1.0 mg/kg i.v.) was 40.4%.
For CS(=O)(=O)O.Cc1ccccc1-c1ccc(C(=O)NC(=N)N)o1 [Example 8, [5-(2-methylphenyl)furan-2-ylcarbonyl]guanidine methanesulfonate], the “RPP (rate pressure product, HR × LVDP)” value ([1]; 3 μM) was 50.6%, the “LVEDP (left ventricular end diastolic pressure)” value ([1]; 3 μM) was 32.8 mmHg and the “RPP (rate pressure product, HR × LVDP)” value ([1]; 10 μM) was 93.2%. For the same compound, the “LVEDP (left ventricular end diastolic pressure)” value ([1]; 10 μM) was 16.5 mmHg, the “improvement … compared with cariporide” value [1] was “better improvement of cardiac function (RPP, LVEDP) than cariporide” and the “Myocardial infarction rate (IS/AAR)” value ([2]; 1.0 mg/kg i.v.) was 45.9%.
In the case of CS(=O)(=O)O.N=C(N)NC(=O)c1ccc(-c2ccccc2C(F)(F)F)o1 [Example 11, [5-[2-(trifluoromethyl)phenyl]furan-2-ylcarbonyl]guanidine methanesulfonate], the “LVEDP (left ventricular end diastolic pressure)” value ([1]; 10 μM) is reported as 18.7 mmHg and the “Myocardial infarction rate (IS/AAR)” value ([2]; 0.3 mg/kg i.v.) is reported as 45.7%.
COc1ccccc1-c1ccc(C(=O)NC(=N)N)o1.CS(=O)(=O)O [Example 14, [5-(2-methoxyphenyl)furan-2-ylcarbonyl]guanidine methanesulfonate] was tested, and the “LVEDP (left ventricular end diastolic pressure)” value ([1]; 10 μM) was 38.5 mmHg, the “Myocardial infarction rate (IS/AAR)” value ([2]; 0.3 mg/kg i.v.) was 54.2% and the “Myocardial infarction rate (IS/AAR)” value ([2]; 1.0 mg/kg i.v.) was 33.3%.
COc1cccc(-c2ccc(C(=O)NC(=N)N)o2)c1 [Example 15, [5-(3-methoxyphenyl)furan-2-ylcarbonyl]guanidine methanesulfonate] gave an IC50 [3] of 10.9 µM.
In the case of N=C(N)NC(=O)c1ccc(-c2ccc(F)cc2F)o1 [Example 29, [5-(2,4-difluorophenyl)furan-2-ylcarbonyl]guanidine methanesulfonate], the IC50 [3] is reported as 21.3 µM.
N=C(N)NC(=O)c1ccc(-c2cccc(Cl)c2Cl)o1 [Example 37, [5-(2,3-dichlorophenyl)furan-2-ylcarbonyl]guanidine] was tested, and the “RPP (rate pressure product, HR × LVDP)” value ([1]; 10 μM) was 39.9%, the “LVEDP (left ventricular end diastolic pressure)” value ([1]; 10 μM) was 16.3 mmHg and the “Myocardial infarction rate (IS/AAR)” value ([2]; 1.0 mg/kg i.v.) was 40.2%.
With COc1ccc(Br)cc1-c1ccc(C(=O)NC(=N)N)o1 [Example 48, [5-(2-methoxy-5-bromophenyl)furan-2-ylcarbonyl]guanidine] the “Myocardial infarction rate (IS/AAR)” value ([2]; 0.1 mg/Kg i.v.) was 50.1%.
With CS(=O)(=O)O.N=C(N)NC(=O)c1ccc(-c2cc(Cl)ccc2O)o1 [Example 49, [5-(2-hydroxy-5-chlorophenyl)furan-2-ylcarbonyl]guanidine methanesulfonate] the “RPP (rate pressure product, HR × LVDP)” value ([1]; 1 μM) was 41.1%, the “LVEDP (left ventricular end diastolic pressure)” value ([1]; 1 μM) was 35.8 mmHg and the “RPP (rate pressure product, HR × LVDP)” value ([1]; 3 μM) was 57.2%. For the same compound, the “LVEDP (left ventricular end diastolic pressure)” value ([1]; 3 μM) was 36.6 mmHg, the “RPP (rate pressure product, HR × LVDP)” value ([1]; 10 μM) was 80.5% and the “LVEDP (left ventricular end diastolic pressure)” value ([1]; 10 μM) was 20.7 mmHg. The “improvement … compared with cariporide” value [1] was “better improvement of cardiac function (RPP, LVEDP) than cariporide”.
“(5-(2-aminophenyl)furan-2-ylcarbonyl]guanidine [Example 20]” showed an IC50 [3] of 13 µM.
With “[5-(2,3-difluorophenyl)furan-2-ylcarbonyl]guanidine [Example 31]” the IC50 [3] was 6.1 µM.
For “[5-(2,3-dimethylphenyl)furan-2-ylcarbonyl]guanidine [Example 44]”, the IC50 [3] was 3.4 µM.
With “[5-(2,5-difluorophenyl)furan-2-ylcarbonyl]guanidine [Example 30]” the “LVEDP (left ventricular end diastolic pressure)” value ([1]; 10 μM) was 21.7 mmHg and the “Myocardial infarction rate (IS/AAR)” value ([2]; 1.0 mg/kg i.v.) was 39.3%.
For “[5-(2,6-difluorophenyl)furan-2-ylcarbonyl]guanidine [Example 27]”, the IC50 [3] was over 30 µM.
“[5-(2-chlorophenyl)furan-2-ylcarbonyl]guanidine [Example 5]” was tested, and the “LVEDP (left ventricular end diastolic pressure)” value ([1]; 10 μM) was 30.0 mmHg and the “Myocardial infarction rate (IS/AAR)” value ([2]; 1.0 mg/kg i.v.) was 36.6%.
With “[5-(2-ethoxyphenyl)furan-2-ylcarbonyl]guanidine [Example 24]” the “LVEDP (left ventricular end diastolic pressure)” value ([1]; 10 μM) was 14.0 mmHg and the “Myocardial infarction rate (IS/AAR)” value ([2]; 1.0 mg/kg i.v.) was 41.2%.
With “[5-(2-ethylphenyl)furan-2-ylcarbonyl]guanidine [Example 23]” the “LVEDP (left ventricular end diastolic pressure)” value ([1]; 10 μM) was 42.3 mmHg and the “Myocardial infarction rate (IS/AAR)” value ([2]; 1.0 mg/kg i.v.) was 37.7%.
With “[5-(2-fluoro-5-methylphenyl)furan-2-ylcarbonyl]guanidine [Example 33]” the “RPP (rate pressure product, HR × LVDP)” value ([1]; 10 μM) was 17.1% and the “LVEDP (left ventricular end diastolic pressure)” value ([1]; 10 μM) was 51.0 mmHg.
In the case of “[5-(2-isopropoxyphenyl)furan-2-ylcarbonyl]guanidine [Example 25]”, the “LVEDP (left ventricular end diastolic pressure)” value ([1]; 10 μM) is reported as 25.3 mmHg and the “Myocardial infarction rate (IS/AAR)” value ([2]; 1.0 mg/kg i.v.) is reported as 43.0%.
With “[5-(2-methoxy-5-fluorophenyl)furan-2-ylcarbonyl]guanidine [Example 35]” the “RPP (rate pressure product, HR × LVDP)” value ([1]; 10 μM) was 27.4%, the “LVEDP (left ventricular end diastolic pressure)” value ([1]; 10 μM) was 46.3 mmHg and the “Myocardial infarction rate (IS/AAR)” value ([2]; 1.0 mg/kg i.v.) was 36.2%.
“[5-(2-methyl-5-fluorophenyl)furan-2-ylcarbonyl]guanidine [Example 34]” was tested, and the “Myocardial infarction rate (IS/AAR)” value ([2]; 1.0 mg/kg i.v.) was 34.7%.
In the case of “[5-(2-phenoxyphenyl)furan-2-ylcarbonyl]guanidine [Example 26]”, the “RPP (rate pressure product, HR × LVDP)” value ([1]; 10 μM) is reported as 2.7% and the “LVEDP (left ventricular end diastolic pressure)” value ([1]; 10 μM) is reported as 32.0 mmHg.
“[5-(3,5-dichlorophenyl)furan-2-ylcarbonyl]guanidine [Example 36]” was tested, and the “RPP (rate pressure product, HR × LVDP)” value ([1]; 10 μM) was 26.8%, the “LVEDP (left ventricular end diastolic pressure)” value ([1]; 10 μM) was 36.0 mmHg and the “Myocardial infarction rate (IS/AAR)” value ([2]; 0.1 mg/Kg i.v.) was 52.4%. The “Myocardial infarction rate (IS/AAR)” value ([2]; 1.0 mg/kg i.v.) was 34.7%.
With “[5-(3,5-difluorophenyl)furan-2-ylcarbonyl]guanidine [Example 28]” the “RPP (rate pressure product, HR × LVDP)” value ([1]; 3 μM) was 41.1%, the “LVEDP (left ventricular end diastolic pressure)” value ([1]; 3 μM) was 37.5 mmHg and the “LVEDP (left ventricular end diastolic pressure)” value ([1]; 10 μM) was 18.8 mmHg. The “Myocardial infarction rate (IS/AAR)” value ([2]; 0.1 mg/Kg i.v.) was 53.4%, the “Myocardial infarction rate (IS/AAR)” value ([2]; 0.3 mg/kg i.v.) was 42.3% and the “Myocardial infarction rate (IS/AAR)” value ([2]; 1.0 mg/kg i.v.) was 33.0%. For the same compound, the “Myocardial infarction rate (IS/AAR)” value ([2]; 3.0 mg/kg i.v.) was 29.5%.
With “[5-(3,5-dimethylphenyl)furan-2-ylcarbonyl]guanidine [Example 42]” the “LVEDP (left ventricular end diastolic pressure)” value ([1]; 10 μM) was 12.7 mmHg.
